Measurements from patent US4812590A, “Carbamates of 4-hydroxyanisole as prodrugs for chemotherapy of melanoma” (priority 1987, dated 1989).
Read-outs that look alike come from different tables or passages of the source.

Key:
[1] = Determination of carbamate half-lives: conversion of carbamate to 4-methoxyphenol in phosphate buffer, HPLC; type: physicochemical
Procedure: […] The resulting solution was heated at 37° while 20 μL samples were removed at intervals and injected directly into the HPLC injection port.
Unreacted carbamate and 4-methoxyphenol concentrations were determined by HPLC analysis with a C-18 reverse phase column using a mobile phase of 87.5% pH 2.4 phosphoric acid and 12.5% acetonitrile. The UV detector was set at 220 nm. The half-life (t1/2) is the time required for 50% conversion of carbamate to 4-methoxyphenol. Compounds (1), (2) and (3) are the preferred prodrugs for the treatment of melanomas.

[2] = Partition coefficient, octanol/pH 7.4 buffer; type: physicochemical
pKa = type: physicochemical
melanoma = conditions: cited from earlier work
DNA synthesis = conditions: cited from earlier work
[3] = test system: melanoma cells that contain tyrosinase; conditions: Riley 1985; cited from earlier work
[4] = after intra-arterial injection; cited from earlier work
[5] = pH 7.4, pH 7.4 phosphate buffer, 37° (Table I), read-out: t1/2 (time required for 50% conversion of carbamate to 4-methoxyphenol)
[6] = pH 6.8, pH 6.8, 37° (Table I), read-out: t1/2

COc1ccc(OC(=O)N(C)CCN)cc1
half-life [1, 5]: 7.7 h

CNCCN(C)C(=O)Oc1ccc(OC)cc1 [Compound IV]
logD [2]: -1.02 | half-life ([1]; pH 7.4, phosphate buffer, pH 7.4 (37°), read-out: half-life of release of 4-hydroxyanisole): 0.6 h | pKa (pKa): 8.88

CNCCCN(C)C(=O)Oc1ccc(OC)cc1
half-life [1, 5]: 24.1 h

CCNCCN(CC)C(=O)Oc1ccc(OC)cc1
half-life [1, 5]: 2.38 h

COc1ccc(OC(=O)NCCN)cc1 [(6)]
half-life [1, 5]: 12.1 h

CNCCNC(=O)Oc1ccc(OC)cc1 [(7)]
half-life [1, 5]: 12.4 h

COc1ccc(OC(=O)N(C)CCN(C)C)cc1
half-life [1, 6]: 3.23 h | half-life [1, 5]: 0.9 h

COc1ccc(OC(=O)NCCCN)cc1.Cl [(5), N-[3-Aminopropyl]carbamic acid 4-methoxyphenyl ester hydrochloride]
half-life [1, 5]: 12 h

COc1ccc(O)cc1 [4-Hydroxyanisole, 4-hydroxyanisole]
results of subsequent studies (melanoma; intra-arterial infusion): more promising results | results of early clinical trials (melanoma; intralesional injection or i.v. infusion): disappointing | effect on DNA synthesis (DNA synthesis): inhibits DNA synthesis | oxidation by tyrosinase and toxicity to melanoma cells [3]: oxidized by tyrosinase to highly cytotoxic products and consequently is preferentially toxic to those melanoma cells that contain the enzyme | half-life in blood [4]: 9 min

CNCCN(C)C(=O)Oc1ccc(OC)cc1 [drawing 8]
half-life [1, 6]: 2.33 h | half-life [1, 5]: 0.605 h
